Measured values published in PMC11077815, “Synthesis and antitumor activity of dolutegravir derivatives bearing 1,2,3-triazole moieties” (BMC Chemistry, 2024).

Legend:
[1] = system: A549; test: CCK8 cell viability assay, A549; format: cell-based, Human; conditions: for Cell viability (100%): A549, 20 µM, 48 h, CCK8, control = 100%; for IC50: A549, 48 h, CCK8, mean ± SE
Experimental: (§1) At first, CCK8 assay was carried out to evaluate the anti-proliferative activity of dolutegravir-1,2,3-triazole derivatives against different cancer cell lines. The results of cell viability of three lung cancer cell lines A549, PC-9 and H460 in the presence of compounds 9 and 10 are summarized in Table 2. Cells were treated with different compounds at the concentration of 20 µM for 48 h. […] Human lung cancer cell lines A549, PC-9 and H460 were all obtained from ATCC. Cells were cultured in DMEM or RPMI 1640 medium containing 10% FBS and 1% penicillin/streptomycin at 37 °C with a 5% CO2-humidified atmosphere. CCK8 assay was used to measure cell viability. Cells with a density of 1 × 10^4 cells/well were seeded on the 96-well plates. After adhesion, cells were treated with different diluted compounds or vehicle control DMSO and continue cultured for 48 h. Then, CCK8 reagent was added for one hour incubation at 37 °C with 5% of CO2. Absorbance was measured using a microplate spectrophotometer (Thermo) at 450 nm. The ratio of cell viability of control was taken as 100%. […] Then IC50 of the compounds were investigated using the prism statistical software.

[2] = system: PC-9; test: CCK8 cell viability assay, PC-9; format: cell-based, Human; conditions: for Cell viability (100%): PC9, 20 µM, 48 h, CCK8, control = 100%; for IC50: PC9, 48 h, CCK8, mean ± SE
Experimental: as §1

[3] = system: H460; test: CCK8 cell viability assay, H460; format: cell-based, Human; conditions: for Cell viability (100%): H460, 20 µM, 48 h, CCK8, control = 100%; for IC50: H460, 48 h, CCK8, mean ± SE
Experimental: as §1

[4] = system: HRM (Human Renal Mesangial) cell line; test: CCK8 cell viability assay, HRM normal cells (toxicity control); format: cell-based; conditions: HRM normal human cells, 48 h, CCK8, mean ± SE
Experimental: Based on these preliminary results, compounds 9c, 9e, 9f, 9i, 9k, 9 L, 9p, 9q, 9t, 9u, 9v, 9w, 10c, 10e which were effective to most of the cell lines were chosen for the measurement of the half-maximal inhibitory concentration (IC50). […] HRM (Human Renal Mesangial) cell line was used as a control to study the toxicity of these compounds against normal human cells.
CCK8 assay was used to measure cell viability. Cells with a density of 1 × 10^4 cells/well were seeded on the 96-well plates. After adhesion, cells were treated with different diluted compounds or vehicle control DMSO and continue cultured for 48 h. Then, CCK8 reagent was added for one hour incubation at 37 °C with 5% of CO2. Absorbance was measured using a microplate spectrophotometer (Thermo) at 450 nm. The ratio of cell viability of control was taken as 100%. […] Then IC50 of the compounds were investigated using the prism statistical software.

COc1c2n(cc(C(=O)Nc3cccc(-c4cn(-c5cccc(C)c5)nn4)c3)c1=O)C[C@@H]1OCC[C@@H](C)N1C2=O [Compound 9f]
Cell viability (100%) [1]: 33.47%
IC50 [1]: 27.8 ± 0.56 µM
Cell viability (100%) [2]: 8.80%
IC50 [2]: 4.67 ± 0.26 µM
Cell viability (100%) [3]: 39.20%
IC50 [3]: 19.6 ± 0.32 µM
IC50 [4]: > 50 µM

COc1c2n(cc(C(=O)Nc3cccc(-c4cn(Cc5ccccc5C(F)(F)F)nn4)c3)c1=O)CC1OCCC(C)N1C2=O (stereo not drawn) [Compound 10 h]
Cell viability (100%) [1]: 77.72%
Cell viability (100%) [2]: 66.77%
Cell viability (100%) [3]: 28.10%

COc1c2n(cc(C(=O)Nc3cccc(-c4cn(-c5ccccc5C(F)(F)F)nn4)c3)c1=O)C[C@@H]1OCC[C@@H](C)N1C2=O [Compound 9c]
Cell viability (100%) [1]: 9.48%
IC50 [1]: 9.06 ± 0.88 µM
Cell viability (100%) [2]: 13.91%
IC50 [2]: 4.03 ± 0.59 µM
Cell viability (100%) [3]: 32.97%
IC50 [3]: 11.4 ± 0.59 µM
IC50 [4]: > 50 µM

COc1c2n(cc(C(=O)Nc3cccc(-c4cn(-c5cc(C(F)(F)F)ccc5C(F)(F)F)nn4)c3)c1=O)C[C@@H]1OCC[C@@H](C)N1C2=O [Compound 9q]
Cell viability (100%) [1]: 54.85%
IC50 [1]: 13.6 ± 1.79 µM
Cell viability (100%) [2]: 18.17%
IC50 [2]: 6.78 ± 0.31 µM
Cell viability (100%) [3]: 17.63%
IC50 [3]: 16.5 ± 0.57 µM
IC50 [4]: > 50 µM

COc1c2n(cc(C(=O)Nc3cccc(-c4cn(Cc5cccc(Br)c5)nn4)c3)c1=O)C[C@@H]1OCC[C@@H](C)N1C2=O [Compound 10e]
Cell viability (100%) [1]: 96.13%
IC50 [1]: > 50 µM
Cell viability (100%) [2]: 49.85%
IC50 [2]: 10.1 ± 0.71 µM
Cell viability (100%) [3]: 28.88%
IC50 [3]: 9.44 ± 1.53 µM
IC50 [4]: > 50 µM

COc1c2n(cc(C(=O)Nc3cccc(-c4cn(-c5ccccc5I)nn4)c3)c1=O)C[C@@H]1OCC[C@@H](C)N1C2=O [Compound 9w]
Cell viability (100%) [1]: 57.94%
IC50 [1]: 33.7 ± 0.68 µM
Cell viability (100%) [2]: 55.21%
IC50 [2]: 9.94 ± 0.36 µM
Cell viability (100%) [3]: 30.63%
IC50 [3]: 14.7 ± 2.83 µM
IC50 [4]: > 50 µM

CCc1ccc(-n2cc(-c3cccc(NC(=O)c4cn5c(c(OC)c4=O)C(=O)N4[C@H](C)CCO[C@H]4C5)c3)nn2)cc1 [Compound 9 m]
Cell viability (100%) [1]: 65.08%
Cell viability (100%) [2]: 63.65%
Cell viability (100%) [3]: 62.63%

COc1c2n(cc(C(=O)Nc3cccc(-c4cn(Cc5ccccc5Br)nn4)c3)c1=O)C[C@@H]1OCC[C@@H](C)N1C2=O [Compound 10c]
Cell viability (100%) [1]: 68.05%
IC50 [1]: > 50 µM
Cell viability (100%) [2]: 50.54%
IC50 [2]: 12.1 ± 0.46 µM
Cell viability (100%) [3]: 41.79%
IC50 [3]: 15.4 ± 1.38 µM
IC50 [4]: > 50 µM

COc1c2n(cc(C(=O)Nc3cccc(-c4cn(-c5ccc(C)cc5)nn4)c3)c1=O)C[C@@H]1OCC[C@@H](C)N1C2=O [Compound 9y]
Cell viability (100%) [1]: 85.43%
Cell viability (100%) [2]: 79.67%
Cell viability (100%) [3]: 94.78%

COc1c2n(cc(C(=O)Nc3cccc(-c4cn(-c5ccccc5F)nn4)c3)c1=O)C[C@@H]1OCC[C@@H](C)N1C2=O [Compound 9a]
Cell viability (100%) [1]: 95.90%
Cell viability (100%) [2]: 52.03%
Cell viability (100%) [3]: 47.20%

COc1cccc(Cn2cc(-c3cccc(NC(=O)c4cn5c(c(OC)c4=O)C(=O)N4[C@H](C)CCO[C@H]4C5)c3)nn2)c1 [Compound 10d]
Cell viability (100%) [1]: 89.00%
Cell viability (100%) [2]: 83.17%
Cell viability (100%) [3]: 77.21%

COc1c2n(cc(C(=O)Nc3cccc(-c4cn(-c5ccccc5Br)nn4)c3)c1=O)C[C@@H]1OCC[C@@H](C)N1C2=O [Compound 9u]
Cell viability (100%) [1]: 64.09%
IC50 [1]: > 50 µM
Cell viability (100%) [2]: 43.88%
IC50 [2]: 7.77 ± 0.37 µM
Cell viability (100%) [3]: 31.00%
IC50 [3]: 37.3 ± 2.25 µM
IC50 [4]: > 50 µM

COc1c2n(cc(C(=O)Nc3cccc(-c4cn(-c5ccc(C(F)(F)F)cc5)nn4)c3)c1=O)C[C@@H]1OCC[C@@H](C)N1C2=O [Compound 9d]
Cell viability (100%) [1]: 82.37%
Cell viability (100%) [2]: 105.15%
Cell viability (100%) [3]: 69.71%

COc1c2n(cc(C(=O)Nc3cccc(-c4cn(Cc5cc(Br)cc(Br)c5)nn4)c3)c1=O)C[C@@H]1OCC[C@@H](C)N1C2=O [Compound 10a]
Cell viability (100%) [1]: 87.40%
Cell viability (100%) [2]: 103.57%
Cell viability (100%) [3]: 82.32%

COc1cc([N+](=O)[O-])ccc1-n1cc(-c2cccc(NC(=O)c3cn4c(c(OC)c3=O)C(=O)N3[C@H](C)CCO[C@H]3C4)c2)nn1 [Compound 9b]
Cell viability (100%) [1]: 92.60%
Cell viability (100%) [2]: 104.86%
Cell viability (100%) [3]: 98.64%

COc1ccc(-n2cc(-c3cccc(NC(=O)c4cn5c(c(OC)c4=O)C(=O)N4[C@H](C)CCO[C@H]4C5)c3)nn2)cc1OC [Compound 9j]
Cell viability (100%) [1]: 87.42%
Cell viability (100%) [2]: 85.93%
Cell viability (100%) [3]: 92.89%

COc1c2n(cc(C(=O)Nc3cccc(-c4cn(-c5ccccc5C)nn4)c3)c1=O)C[C@@H]1OCC[C@@H](C)N1C2=O [Compound 9s]
Cell viability (100%) [1]: 82.07%
Cell viability (100%) [2]: 65.73%
Cell viability (100%) [3]: 48.37%

COc1c2n(cc(C(=O)Nc3cccc(-c4cn(Cc5ccccc5F)nn4)c3)c1=O)CC1OCCC(C)N1C2=O (stereo not drawn) [Compound 10f]
Cell viability (100%) [1]: 82.22%
Cell viability (100%) [2]: 61.10%
Cell viability (100%) [3]: 32.43%

COc1c2n(cc(C(=O)Nc3cccc(-c4cn(Cc5ccccc5C)nn4)c3)c1=O)CC1OCCC(C)N1C2=O (stereo not drawn) [Compound 10 g]
Cell viability (100%) [1]: 71.58%
Cell viability (100%) [2]: 54.61%
Cell viability (100%) [3]: 35.98%

COc1c2n(cc(C(=O)Nc3cccc(-c4cn(-c5cc(C(F)(F)F)cc(C(F)(F)F)c5)nn4)c3)c1=O)C[C@@H]1OCC[C@@H](C)N1C2=O [Compound 9r]
Cell viability (100%) [1]: 90.73%
Cell viability (100%) [2]: 98.55%
Cell viability (100%) [3]: 117.07%

COc1c2n(cc(C(=O)Nc3cccc(-c4cn(-c5c(C)cc(C)cc5C)nn4)c3)c1=O)C[C@@H]1OCC[C@@H](C)N1C2=O [Compound 9z]
Cell viability (100%) [1]: 91.32%
Cell viability (100%) [2]: 73.07%
Cell viability (100%) [3]: 55.57%

COc1c2n(cc(C(=O)Nc3cccc(-c4cn(-c5ccccc5Cl)nn4)c3)c1=O)C[C@@H]1OCC[C@@H](C)N1C2=O [Compound 9v]
Cell viability (100%) [1]: 54.06%
IC50 [1]: > 50 µM
Cell viability (100%) [2]: 47.42%
IC50 [2]: 11.6 ± 0.48 µM
Cell viability (100%) [3]: 38.13%
IC50 [3]: 16.2 ± 1.29 µM
IC50 [4]: > 50 µM

COc1ccc(-n2cc(-c3cccc(NC(=O)c4cn5c(c(OC)c4=O)C(=O)N4C(C)CCOC4C5)c3)nn2)cc1 (stereo not drawn) [Compound 9x]
Cell viability (100%) [1]: 69.21%
Cell viability (100%) [2]: 78.11%
Cell viability (100%) [3]: 108.05%

COc1c2n(cc(C(=O)Nc3cccc(-c4cn(-c5ccc(F)cc5)nn4)c3)c1=O)C[C@@H]1OCC[C@@H](C)N1C2=O [Compound 9 g]
Cell viability (100%) [1]: 91.65%
Cell viability (100%) [2]: 88.64%
Cell viability (100%) [3]: 97.85%

COc1ccccc1-n1cc(-c2cccc(NC(=O)c3cn4c(c(OC)c3=O)C(=O)N3[C@H](C)CCO[C@H]3C4)c2)nn1 [Compound 9t]
Cell viability (100%) [1]: 7.32%
IC50 [1]: 17.3 ± 0.73 µM
Cell viability (100%) [2]: 4.56%
IC50 [2]: 6.75 ± 1.43 µM
Cell viability (100%) [3]: 3.27%
IC50 [3]: 14.2 ± 0.16 µM
IC50 [4]: > 50 µM

COc1c2n(cc(C(=O)Nc3cccc(-c4cn(-c5ccccc5)nn4)c3)c1=O)C[C@@H]1OCC[C@@H](C)N1C2=O [Compound 9o]
Cell viability (100%) [1]: 78.59%
Cell viability (100%) [2]: 94.56%
Cell viability (100%) [3]: 87.72%

COc1c2n(cc(C(=O)Nc3cccc(-c4cn(Cc5ccccc5)nn4)c3)c1=O)C[C@@H]1OCC[C@@H](C)N1C2=O [Compound 10b]
Cell viability (100%) [1]: 87.18%
Cell viability (100%) [2]: 96.85%
Cell viability (100%) [3]: 55.00%

COc1c2n(cc(C(=O)Nc3cccc(-c4cn(-c5ccc(C(C)(C)C)cc5)nn4)c3)c1=O)C[C@@H]1OCC[C@@H](C)N1C2=O [Compound 9n]
Cell viability (100%) [1]: 67.60%
Cell viability (100%) [2]: 59.44%
Cell viability (100%) [3]: 24.58%

CCOc1ccc(-n2cc(-c3cccc(NC(=O)c4cn5c(c(OC)c4=O)C(=O)N4[C@H](C)CCO[C@H]4C5)c3)nn2)cc1 [Compound 9 h]
Cell viability (100%) [1]: 77.55%
Cell viability (100%) [2]: 71.96%
Cell viability (100%) [3]: 52.87%
